Measured values from patent publication US4616081A, “Cephalosporin compounds” (Asahi Kasei Kogyo Kabushiki Kaisha, priority 1982, dated 1986).

Assays:
[1] = tested on: Serratia marcescens; assay: MIC against Serratia marcescens; assay type: cell-based
Protocol: (§1) Nextly, antibacterial activity or minimum inhibitory concentration (MIC) was measured and the results are shown in Table 1 with respect to the following representative compounds according to the present invention. [drawing 19]
(§2) With respect to Compound Nos. 14 and 15, antibacterial activity or minimum inhibitory concentration (MIC) was measured and the results are shown in Table 2. [drawing 21]

[2] = tested on: Shigella sonnei E33; assay: MIC against Shigella sonnei E33; assay type: cell-based
Protocol: as §1, §2

[3] = tested on: Klebs. pneumoniae ATCC 10031; assay: MIC against Klebs. pneumoniae ATCC 10031; assay type: cell-based
Protocol: as §1, §2

[4] = maximum blood concentration after oral administration in Wister rats (HPLC and Bioassay); assay type: in vivo; details: Wister rat, fasted, 30 mg/kg, solution of pH 7 in phosphate buffer
Protocol: Further in the compounds according to the present invention, intestinal absorption is improved by the introduction of amino acids at the 3-position thereof. For example, comparison of the maximum blood concentration of the Compound Nos. 2, 3, 7, 8, 14, 15 and 23 with that of Comparative Compound (b) establishes and affirms the effects, as is shown below. In the above test, the method for measurement of blood concentration was as follows. Rate: Wister rat weighing 170 to 220 g Dose: 30 mg/kg Wister rats were fasted from the previous night but freely accessible to water. Each of drugs was administered as a solution of pH 7 in a phosphate buffer, when orally administered. The blood concentration was measured in accordance with the High Performance Liquid Chromatography (HPLC) method and the Bioassay method by using E. coli as bacteria for test.

[5] = tested on: E. coli W3630 RGN238; assay: MIC against E. coli W3630 RGN238; assay type: cell-based
[6] = tested on: Proteus rettgeri ACR; assay: MIC against Proteus rettgeri ACR; assay type: cell-based
Protocol: as §1, §2

[7] = tested on: E. coli W3630 RGN14; assay: MIC against E. coli W3630 RGN14; assay type: cell-based
[8] = tested on: E. coli 0205; assay: MIC against E. coli 0205; assay type: cell-based
[9] = tested on: E. coli W3630; assay: MIC against E. coli W3630; assay type: cell-based
Protocol: as §1, §2

[10] = acute toxicity test using mice, intraperitoneal; details: mouse, in vivo, ip
From the text: In addition to excellent antibacterial activity, the compounds of the present invention are low in toxicity. For example, in acute toxicity test using mice, the following results were obtained with Compound Nos. 2, 3, 7, 14, 15 and 23 which were intraperitoneally administered.

[11] = tested on: Enterobact. cloacae GN336; assay: MIC against Enterobact. cloacae GN336; assay type: cell-based
Protocol: as §1, §2

[12] = tested on: E. coli NIHJ-JC2; assay: MIC against E. coli NIHJ-JC2; assay type: cell-based
Protocol: as §1, §2

[13] = tested on: Ps. aeruginosa 0812 M2; assay: MIC against Ps. aeruginosa 0812 M2; assay type: cell-based; details: Bacterial count inoculated 10^6 cells/ml
Protocol: as §1, §2

[14] = tested on: Proteus morganii 0239; assay: MIC against Proteus morganii 0239; assay type: cell-based; details: Bacterial count inoculated 10^6 cells/ml
Protocol: as §1, §2

[15] = tested on: Sarcina lutea ATCC 9341; assay: MIC against Sarcina lutea ATCC 9341; assay type: cell-based; details: Bacterial count inoculated 10^6 cells/ml
Protocol: as §1, §2

[16] = tested on: Staph. aureus ATCC 6538P; assay: MIC against Staph. aureus ATCC 6538P; assay type: cell-based; details: Bacterial count inoculated 10^6 cells/ml
Protocol: as §1, §2

[17] = tested on: Enterobact. aerogenes 0655; assay: MIC against Enterobact. aerogenes 0655; assay type: cell-based; details: Bacterial count inoculated 10^6 cells/ml
Protocol: as §1, §2

[18] = tested on: E. coli W3630 PS3; assay: MIC against E. coli W3630 PS3; assay type: cell-based; details: Bacterial count inoculated 10^6 cells/ml
Protocol: as §1, §2

[19] = tested on: Staph. aureus MS27; assay: MIC against Staph. aureus MS27; assay type: cell-based; details: Bacterial count inoculated 10^6 cells/ml
Protocol: as §1, §2

[20] = tested on: Strept. pyogenes NY5; assay: MIC against Strept. pyogenes NY5; assay type: cell-based; details: Bacterial count inoculated 10^6 cells/ml
Protocol: as §1, §2

[21] = tested on: Citrobact. freundii GN346; assay: MIC against Citrobact. freundii GN346; assay type: cell-based; details: Bacterial count inoculated 10^6 cells/ml
Protocol: as §1, §2

[22] = tested on: Bac. subtilis ATCC 6633; assay: MIC against Bac. subtilis ATCC 6633; assay type: cell-based; details: Bacterial count inoculated 10^6 cells/ml
Protocol: as §2

[23] = tested on: Salm. enteritidis Gaertner; assay: MIC against Salm. enteritidis Gaertner; assay type: cell-based; details: Bacterial count inoculated 10^6 cells/ml
Protocol: as §1, §2

[24] = Bacterial count inoculated 10^6 cells/ml
[25] = Table 3, second listing of the strain, head prints 10^6 cells/ml

Structure (SMILES): CO/N=C(\C(=O)N[C@@H]1C(=O)N2C(C(=O)O)=C(CSc3ncc(C[C@H](N)C(=O)O)[nH]3)CS[C@H]12)c1csc(N)n1 [Compound No. 23]
- Minimum Inhibitory Concentration (MIC) [1, 24]: ≤ 0.2
- Minimum Inhibitory Concentration (MIC) [1, 25]: > 100
- Minimum Inhibitory Concentration (MIC) [2, 24]: ≤ 0.2
- Minimum Inhibitory Concentration (MIC) [2, 25]: 1.6
- Minimum Inhibitory Concentration (MIC) [3, 24]: ≤ 0.2
- Minimum Inhibitory Concentration (MIC) [3, 25]: 1.6
- Cmax [4]: 6000 ng/mL
- Minimum Inhibitory Concentration (MIC) [5, 24]: ≤ 0.2
- Minimum Inhibitory Concentration (MIC) [5, 25]: 25
- Minimum Inhibitory Concentration (MIC) [6, 24]: ≤ 0.2
- Minimum Inhibitory Concentration (MIC) [6, 25]: 25
- Minimum Inhibitory Concentration (MIC) [7, 24]: ≤ 0.2
- Minimum Inhibitory Concentration (MIC) [7, 25]: 6.3
- Minimum Inhibitory Concentration (MIC) [8, 24]: 0.4
- Minimum Inhibitory Concentration (MIC) [8, 25]: 12.5
- Minimum Inhibitory Concentration (MIC) [9, 24]: ≤ 0.2
- Minimum Inhibitory Concentration (MIC) [9, 25]: 6.3
- LD50 [10]: 10000 to 12000 mg/kg
- Minimum Inhibitory Concentration (MIC) [11, 24]: ≤ 0.2
- Minimum Inhibitory Concentration (MIC) [11, 25]: 25
- Minimum Inhibitory Concentration (MIC) [12, 24]: ≤ 0.2
- Minimum Inhibitory Concentration (MIC) [12, 25]: 12.5

Structure (SMILES): Cc1nnc(SCC2=C(C(=O)O)N3C(=O)C(NC(=O)Cn4cnnn4)C3SC2)s1 (centres unmarked) [Comparative Compound (a), reference compound]
- Minimum Inhibitory Concentration (MIC) [13]: > 100
- Minimum Inhibitory Concentration (MIC) [14]: > 100
- Minimum Inhibitory Concentration (MIC) [15]: 0.8
- Minimum Inhibitory Concentration (MIC) [1, 24]: > 100
- Minimum Inhibitory Concentration (MIC) [16]: 0.4
- Minimum Inhibitory Concentration (MIC) [2, 24]: 1.6
- Minimum Inhibitory Concentration (MIC) [17]: > 100
- Minimum Inhibitory Concentration (MIC) [3, 24]: 3.1
- Minimum Inhibitory Concentration (MIC) [6, 24]: > 100
- Minimum Inhibitory Concentration (MIC) [18]: 3.1
- Minimum Inhibitory Concentration (MIC) [19]: 1.6
- Minimum Inhibitory Concentration (MIC) [20]: 0.2
- Minimum Inhibitory Concentration (MIC) [21]: > 100
- Minimum Inhibitory Concentration (MIC) [9, 24]: 3.1
- Minimum Inhibitory Concentration (MIC) [11, 24]: > 100
- Minimum Inhibitory Concentration (MIC) [22]: 0.2
- Minimum Inhibitory Concentration (MIC) [12, 24]: 1.6
- Minimum Inhibitory Concentration (MIC) [23]: 3.1

Structure (SMILES): CO/N=C(\C(=O)N[C@@H]1C(=O)N2C(C(=O)O)=C(C[n+]3cccc(CC(N)C(=O)O)c3)CS[C@H]12)c1csc(N)n1 (some centres unmarked) [Compound No. 15]
- Minimum Inhibitory Concentration (MIC) [13]: 6.3
- Minimum Inhibitory Concentration (MIC) [14]: 0.2
- Minimum Inhibitory Concentration (MIC) [15]: ≤ 0.1
- Minimum Inhibitory Concentration (MIC) [1, 24]: 0.4
- Minimum Inhibitory Concentration (MIC) [16]: 3.1
- Minimum Inhibitory Concentration (MIC) [2, 24]: ≤ 0.1
- Minimum Inhibitory Concentration (MIC) [17]: 0.2
- Minimum Inhibitory Concentration (MIC) [3, 24]: 0.1
- Cmax [4]: 12000 ng/mL
- Minimum Inhibitory Concentration (MIC) [6, 24]: 0.2
- Minimum Inhibitory Concentration (MIC) [18]: 0.1
- Minimum Inhibitory Concentration (MIC) [19]: 6.3
- Minimum Inhibitory Concentration (MIC) [20]: ≤ 0.1
- Minimum Inhibitory Concentration (MIC) [21]: 12.5
- Minimum Inhibitory Concentration (MIC) [9, 24]: 0.2
- LD50 [10]: 10000 to 12000 mg/kg
- Minimum Inhibitory Concentration (MIC) [11, 24]: 0.2
- Minimum Inhibitory Concentration (MIC) [22]: 1.6
- Minimum Inhibitory Concentration (MIC) [12, 24]: 0.2
- Minimum Inhibitory Concentration (MIC) [23]: ≤ 0.1

Structure (SMILES): CO/N=C(\C(=O)N[C@@H]1C(=O)N2C(C(=O)O)=C(C[n+]3ccc(CC(N)C(=O)O)cc3)CS[C@H]12)c1csc(N)n1 (stereo partly drawn) [Compound No. 14, 7β-[(Z)-2-(2-amino-4-thiazolyl)-2-(methoxyimino)acetamido]-3-[4-(2-amino-2-carboxy)ethyl-1-pyridiummethyl]-3-cephem-4-carboxylic acid]
- Minimum Inhibitory Concentration (MIC) [13]: 3.1
- Minimum Inhibitory Concentration (MIC) [14]: 0.2
- Minimum Inhibitory Concentration (MIC) [15]: 0.8
- Minimum Inhibitory Concentration (MIC) [1, 24]: 0.1
- Minimum Inhibitory Concentration (MIC) [16]: 6.3
- Minimum Inhibitory Concentration (MIC) [2, 24]: ≤ 0.1
- Minimum Inhibitory Concentration (MIC) [17]: 0.2
- Minimum Inhibitory Concentration (MIC) [3, 24]: ≤ 0.1
- Cmax [4]: 9000 ng/mL
- Minimum Inhibitory Concentration (MIC) [6, 24]: 0.2
- Minimum Inhibitory Concentration (MIC) [18]: ≤ 0.1
- Minimum Inhibitory Concentration (MIC) [19]: 3.1
- Minimum Inhibitory Concentration (MIC) [20]: 0.1
- Minimum Inhibitory Concentration (MIC) [21]: 12.5
- Minimum Inhibitory Concentration (MIC) [9, 24]: ≤ 0.1
- LD50 [10]: 9000 to 10000 mg/kg
- Minimum Inhibitory Concentration (MIC) [11, 24]: 0.2
- Minimum Inhibitory Concentration (MIC) [22]: ≤ 0.1
- Minimum Inhibitory Concentration (MIC) [12, 24]: 0.1
- Minimum Inhibitory Concentration (MIC) [23]: ≤ 0.1
